Experimental data as given in patent US7964628B2, “Fibrinogen receptor antagonists and their use” (Piramal Life Sciences Limited, priority 2003, dated 2011).
Structures can show the parent of a compound that is named as a salt.

In the case of `CCOC(=O)COC1CCN(C(=O)CN2Cc3cc(C(=N)N)ccc3C2=O)CC1` (as salt: salt) (hydrate or solvate) [Example 71, (1-{2-[5-Carbamimidoyl-1-oxo-1,3-dihydro-isoindol-2-yl]-acetyl}-piperidin-4-yloxy)-acetic acid ethyl ester], the melting point is reported as 189 to 190 °C. Molecule `CCOC(=O)COc1cc(O)c(C(=O)CN2Cc3cc(C(=N)NO)ccc3C2=O)cc1OCC(=O)OCC` (hydrate or solvate) [Example 65, (2-Ethoxycarbonylmethoxy-5-hydroxy-4-{2-[5-(N-hydroxycarbamimidoyl)-1-oxo-1,3-dihydro-isoindol-2-yl]-acetyl}-phenoxy)-acetic acid ethyl ester] has a melting point of 186 to 188 °C. For `N=C(N)c1ccc2c(c1)CN(CC(=O)c1ccc(OCC(=O)O)cc1)C2=O` (as salt: hydrochloride) (hydrate or solvate) [Example 17, (4-{2-[5-Carbamimidoyl-1-oxo-1,3-dihydro-isoindol-2-yl]-acetyl}-phenoxy)-acetic acid], the melting point was > 250 °C (dec.). Molecule `CCOC(=O)COC1CCN(C(=O)CN2Cc3cc(C(=N)NC(=O)OC(C)(C)C)ccc3C2=O)CC1` (hydrate or solvate) [Example 72, (1-{2-[5-(tert-Butoxycarbonylamino-imino-methyl)-1-oxo-1,3-dihydro-isoindol-2-yl]-acetyl}-piperidin-4-yloxy)-acetic acid ethyl ester] has a melting point of 83 to 85 °C. Molecule `CCOC(=O)COc1ccc(C(=O)CN2Cc3cc(C(=N)NO)ccc3C2=O)c(O)c1CC` [Example 57, (2-Ethyl-3-hydroxy-4-{2-[5-(N-hydroxycarbamimidoyl)-1-oxo-1,3-dihydro-isoindol-2-yl]-acetyl}-phenoxy)-acetic acid ethyl ester] has a melting point of 196 to 197 °C. In the case of `CCOC(=O)COc1ccc(C(=O)CN2Cc3cc(C(=N)NO)ccc3C2=O)cc1SCC` (hydrate or solvate) [Example 34, (2-Ethylsulfanyl-4-{2-[5-(N-hydroxycarbamimidoyl)-1-oxo-1,3-dihydro-isoindol-2-yl]-acetyl}-phenoxy)-acetic acid ethyl ester], the melting point is reported as 190 to 191 °C. Work on `COC(=O)COc1ccc(C(=O)CN2Cc3cc(C(=N)NO)ccc3C2=O)cc1` (hydrate or solvate) [Example 2, (4-{2-[5-(N-Hydroxycarbamimidoyl)-1-oxo-1,3-dihydro-isoindol-2-yl]-acetyl}-phenoxy)-acetic acid methyl ester] yielded a melting point of 175 to 176 °C. Work on `CCOC(=O)COc1ccc(C(=O)CN2Cc3cc(C(=N)NO)ccc3C2=O)cc1N(CC(=O)OCC)S(C)(=O)=O` [Example 40, (2-{Ethoxycarbonylmethyl-methanesulfonyl-amino}-4-{2-[5-(N-hydroxycarbamimidoyl)-1-oxo-1,3-dihydro-isoindol-2-yl]-acetyl}-phenoxy)-acetic acid ethyl ester] yielded a melting point of 165 to 167 °C. With `CC(C)COC(=O)COc1ccc(C(=O)CN2Cc3cc(C(=N)NO)ccc3C2=O)cc1` [Example 15, (4-{2-[5-(N-Hydroxycarbamimidoyl)-1-oxo-1,3-dihydro-isoindol-2-yl]-acetyl}-phenoxy)-acetic acid isobutyl ester] the melting point was 153 to 154 °C. With `COC(=O)NC(=N)c1ccc2c(c1)CN(CC(=O)c1ccc(OCC(=O)OC(C)C)cc1)C2=O` [Example 6, (4-{2-[5-(Imino-methoxycarbonylamino-methyl)-1-oxo-1,3-dihydro-isoindol-2-yl]-acetyl}-phenoxy)-acetic acid isopropyl ester] the melting point was 183 to 184 °C. With `N=C(NO)c1ccc2c(c1)CN(CC(=O)c1ccc(OCC(=O)OCc3ccccc3)cc1O)C2=O` [Example 43, (3-Hydroxy-4-{2-[5-(N-hydroxycarbamimidoyl)-1-oxo-1,3-dihydro-isoindol-2-yl]-acetyl}-phenoxy)-acetic acid benzyl ester] the melting point was 183 to 184 °C. `CCOC(=O)COc1c(SCC)cc(C(=O)CN2Cc3cc(C(=N)NO)ccc3C2=O)cc1SCC` [Example 37, (2,6-Bis-ethylsulfanyl-4-{2-[5-(N-hydroxycarbamimidoyl)-1-oxo-1,3-dihydro-isoindol-2-yl]-acetyl}-phenoxy)-acetic acid ethyl ester] showed a melting point of 183 to 184 °C. Work on `CC(C)COC(=O)NC(=N)c1ccc2c(c1)CN(CC(=O)c1ccc(OCC(=O)OC(C)C)cc1)C2=O` (hydrate or solvate) [Example 7, (4-{2-[5-(Imino-isobutoxycarbonylamino-methyl)-1-oxo-1,3-dihydro-isoindol-2-yl]-acetyl}-phenoxy)-acetic acid isopropyl ester] yielded a melting point of 155 to 157 °C. Work on `CCOC(=O)COc1ccc(C(=O)CN2Cc3cc(C(=N)N)ccc3C2=O)c(OCC)c1` [Example 76, (4-{2-[5-carbamimidoyl-1-oxo-1,3-dihydro-isoindol-2-yl]-acetyl}-3-ethoxy-phenoxy)-acetic acid ethyl ester] yielded a melting point of 202 to 203 °C. For `CCOC(=O)COc1ccc(C(=O)CN2Cc3cc(C(=N)NO)ccc3C2=O)c(OC)c1` [Example 45, (4-{2-[5-(N-Hydroxycarbamimidoyl)-1-oxo-1,3-dihydro-isoindol-2-yl]-acetyl}-3-methoxy-phenoxy)-acetic acid ethyl ester], the melting point was 163 to 165 °C. Work on `CCOC(=O)COc1ccc(C(=O)CN2Cc3cc(C(=N)NC(=O)OCC(C)C)ccc3C2=O)cc1N(CC(=O)OCC)S(C)(=O)=O` (hydrate or solvate) [Example 39, (2-{Ethoxycarbonylmethyl-methanesulfonyl-amino}-4-{2-[5-(imino-isobutoxycarbonylamino-methyl)-1-oxo-1,3-dihydro-isoindol-2-yl]-acetyl}-phenoxy)-acetic acid ethyl ester] yielded a melting point of 80 to 82 °C. In the case of `CCOC(=O)COc1cc(O)c(C(=O)CN2Cc3cc(C(=N)NO)ccc3C2=O)cc1CC` [Example 50, (2-Ethyl-5-hydroxy-4-{2-[5-(N-hydroxycarbamimidoyl)-1-oxo-1,3-dihydro-isoindol-2-yl]-acetyl}-phenoxy)-acetic acid ethyl ester], the melting point is reported as 218 to 219 °C. In the case of `CCOC(=O)COc1ccc(C(=O)CN2Cc3cc(C(=N)NO)ccc3C2=O)c(O)c1Cl` (hydrate or solvate) [Example 54, (2-Chloro-3-hydroxy-4-{2-[5-(N-hydroxycarbamimidoyl)-1-oxo-1,3-dihydro-isoindol-2-yl]-acetyl}-phenoxy)-acetic acid ethyl ester], the melting point is reported as 214 to 215 °C. In the case of `CCOC(=O)COc1ccc(C(=O)CN2Cc3cc(-c4nc(=O)o[nH]4)ccc3C2=O)c(O)c1` [Example 78, (3-Hydroxy-4-{2-[1-oxo-5-(5-oxo-2,5-dihydro-[1,2,4]oxadiazol-3-yl)-1,3-dihydro-isoindol-2-yl]-acetyl}-phenoxy)-acetic acid ethyl ester], the melting point is reported as 223 to 225 °C. In the case of `N=C(N)c1ccc2c(c1)CN(CC(=O)N1CCC(OCC(=O)O)CC1)C2=O` (as salt: hydrochloride) (hydrate or solvate) [Example 73, (1-{2-[5-Carbamimidoyl-1-oxo-1,3-dihydro-isoindol-2-yl]-acetyl}-piperidin-4-yloxy)-acetic acid], the melting point is reported as 135 to 136 °C. In the case of `CCOC(=O)CN1CCN(C(=O)CN2Cc3cc(C(=N)N)ccc3C2=O)CC1` (as salt: salt) [Example 66, (4-{2-[5-Carbamimidoyl-1-oxo-1,3-dihydro-isoindol-2-yl]-acetyl}-piperazine-1-yl)-acetic acid ethyl ester], the melting point is reported as 211 to 212 °C. Work on `CCOC(=O)COc1ccc(C(=O)CN2Cc3cc(-c4noc(C)n4)ccc3C2=O)c(OC(C)=O)c1` [Example 80, (3-Acetoxy-4-{2-[5-(5-methyl-[1,2,4]oxadiazol-3-yl)-1-oxo-1,3-dihydro-isoindol-2-yl]acetyl}-phenoxy)-acetic acid ethyl ester] yielded a melting point of 162 to 164 °C. With `CCOC(=O)COc1cc(O)c(C(=O)CN2Cc3cc(C(=N)NO)ccc3C2=O)c(O)c1` [Example 63, (3,5-Dihydroxy-4-{2-[5-(N-hydroxycarbamimidoyl)-1-oxo-1,3-dihydro-isoindol-2-yl]-acetyl}-phenoxy)-acetic acid ethyl ester] the melting point was 229 to 230 °C. `CCOC(=O)COc1cc(O)c(C(=O)CN2Cc3cc(C(=N)NO)ccc3C2=O)cc1C(C)(C)C` [Example 52, (2-tert-Butyl-5-hydroxy-4-{2-[5-(N-hydroxycarbamimidoyl)-1-oxo-1,3-dihydro-isoindol-2-yl]-acetyl}-phenoxy)-acetic acid ethyl ester] gave a melting point of 177 to 178 °C. Molecule `CCCc1c(OCC(=O)OCc2ccccc2)ccc(C(=O)CN2Cc3cc(C(=N)NO)ccc3C2=O)c1O` [Example 59, (3-Hydroxy-4-{2-[5-(N-hydroxycarbamimidoyl)-1-oxo-1,3-dihydro-isoindol-2-yl]-acetyl}-2-propyl-phenoxy)-acetic acid benzyl ester] has a melting point of 199 to 200 °C. In the case of `CCOC(=O)COc1ccc(C(=O)CN2Cc3cc(C(=N)N)ccc3C2=O)cc1OCC(=O)OCC` (as salt: salt) (hydrate or solvate) [Example 20, (4-{2-[5-Carbamimidoyl-1-oxo-1,3-dihydro-isoindol-2-yl]-acetyl}-2-ethoxycarbonylmethoxy-phenoxy)-acetic acid ethyl ester], the melting point is reported as 168 to 169 °C. Molecule `CCCc1c(OCC(=O)OCC)ccc(C(=O)CN2Cc3cc(C(=N)NO)ccc3C2=O)c1O` [Example 58, (3-Hydroxy-4-{2-[5-(N-hydroxycarbamimidoyl)-1-oxo-1,3-dihydro-isoindol-2-yl]-acetyl}-2-propyl-phenoxy)-acetic acid ethyl ester] has a melting point of 211 to 212 °C. Work on `CC(C)COC(=O)COc1ccc(C(=O)CN2Cc3cc(C(=N)NC(=O)OCC(C)C)ccc3C2=O)cc1` (hydrate or solvate) [Example 12, (4-{2-[5-(Imino-isobutoxycarbonylamino-methyl)-1-oxo-1,3-dihydro-isoindol-2-yl]-acetyl}-phenoxy)-acetic acid isobutyl ester] yielded a melting point of 140 to 141 °C. For `CCN(CC)C(=O)COc1ccc(C(=O)CN2Cc3cc(C(=N)N)ccc3C2=O)cc1` (as salt: salt) [Example 25, 2-(4-{2-[5-Carbamimidoyl-1-oxo-1,3-dihydro-isoindol-2-yl]-acetyl}-phenoxy)-N,N-diethyl-acetamide], the melting point was 194 to 195 °C.
